Measurements published in patent US20260231945A1, “NEMATICIDAL COMPOUNDS, THEIR COMPOSITION AND USE THEREOF” (priority 2023, published 2026).

How the values were obtained:
[1] = test system: Root-knot nematodes Meloidogyne spp. juveniles (J2); assay: whole plant or invertebrate; type: in vivo; conditions: 70-100 J2 juveniles, 22±2° C., 70±5% RH, dead/inactive counted at 24, 48, 72 and 96 hours (time of rating not stated); for mortality at 500 ppm: Meloidogyne
Experimental: The compound to be tested (4 mg) was dissolved in 40 μl of DMSO to make 100,000 PPM concentration stock solution. […] The nematode suspension (250 μl) having 70-100 juveniles (J2) of Root-knot nematodes Meloidogyne spp. pipetted out to each cell of 24 well bioassay plate. Sterile water (1 ml) was pipetted out in fresh 2.5 ml Eppendorf micro-centrifuge tubes. The desired concentration (500 ppm) of the compound was prepared by adding stock solution in 2.5 ml Eppendorf micro-centrifuge tubes. For each treatment 4 replications were maintained. The bioassay plates were incubated at 22±2° C. and 70±5% RH in humidity chambers.

[2] = Stability studies: storage at room temperature and under accelerated storage condition (ATS), purity estimated by HPLC; type: physicochemical; conditions: properly packed material; for purity estimated by HPLC, Day 14 Condition 54° C. ± 2° C. / purity estimated by HPLC, Day Zero Condition 54° C. ± 2° C.: 54° C. ± 2° C. (accelerated storage)
Excerpt: The properly packed material was subjected to the conditions mentioned in the table below (Table 5).

purity estimated by HPLC, Day 14 Condition 25° C. ± 2° C. [2] | purity estimated by HPLC, Day 14 Condition 54° C. ± 2° C. [2] | purity estimated by HPLC, Day Zero Condition 25° C. ± 2° C. [2] | purity estimated by HPLC, Day Zero Condition 54° C. ± 2° C. [2] | Structure (SMILES) | mortality at 500 ppm [1] | % Mortality Rating ([1]; 500 ppm)
99.50 | 98.90 | 99.55 | 99.43 | N#Cc1ccc(/C=C/C=N/[C@@H](CCCNC(=N)N)C(=O)O)cc1 [Example 20, (E)-N^2-[(2E)-3-(4-cyanophenyl)prop-2-en-1-ylidene]-L-arginine] | 70 to 100% | 
98.85 | 98.90 | 98.90 | 98.75 | N=C(N)NCCC[C@H](/N=C/C=C/c1ccc2ccccc2c1)C(=O)O [Example 24, (E)-N^2-[(2E)-3-(naphthalen-2-yl)prop-2-en-1-ylidene]-L-arginine] | 50 to 69% | 

Structure (SMILES) | purity estimated by HPLC, Day 14 Condition 25° C. ± 2° C. [2] | purity estimated by HPLC, Day 14 Condition 54° C. ± 2° C. [2] | purity estimated by HPLC, Day Zero Condition 25° C. ± 2° C. [2] | purity estimated by HPLC, Day Zero Condition 54° C. ± 2° C. [2] | mortality at 500 ppm [1] | % Mortality Rating ([1]; 500 ppm)
N#Cc1ccc(C=CC=NC(CCCNC(=N)N)C(=O)O)c(C(F)(F)F)c1 (stereo not drawn) [Example 39] | 99.55 | 99.60 | 99.40 | 99.40 |  | A (70-100)
